From ChEMBL document CHEMBL1201862, “PubChem BioAssay data set” (2004)
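1) Cells in 96-well plates. 2) Compound, 48 h, 5 concentrations. 3) Linear interpolation between surrounding doses. 4) Unreached endpoint = highest concentration. GI50: concentration for 50% inhibition of growth.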 Activity calls are given as the source filed them. Cut-off read from the data, not from the text of the source: active = GI50 up to about 1.1 µM and inactive = higher.

How the values were obtained:
Assay in all cases: NCI-60 cell line screen, 48 h
A498 = test system: A498
EKVX = test system: EKVX
HCT-116 = test system: HCT-116
HT-29 = test system: HT-29
Hs-578T = test system: Hs-578T
KM12 = test system: KM12
M14 = test system: M14
MDA-N = test system: MDA-N
MOLT-4 = test system: MOLT-4
NCI-H226 = test system: NCI-H226
NCI-H460 = test system: NCI-H460
NCI-H522 = test system: NCI-H522
OVCAR-8 = test system: OVCAR-8
PC-3 = test system: PC-3
RXF 393 = test system: RXF 393
SK-MEL-2 = test system: SK-MEL-2
SK-MEL-5 = test system: SK-MEL-5
SNB-75 = test system: SNB-75
U-251 = test system: U-251
UACC-257 = test system: UACC-257

Measured: GI50

CSc1c(C(=O)Nc2ccc(Cl)cc2)c(N)nn1-c1ccccc1
inactive: A498 > 35.3 µM | EKVX > 100 µM | HCT-116 > 100 µM | HT-29 > 100 µM | Hs-578T > 28.2 µM | KM12 > 100 µM | M14 > 100 µM | MDA-N > 100 µM | MOLT-4 > 100 µM | NCI-H226 > 100 µM | NCI-H460 > 59.2 µM | NCI-H522 > 100 µM | OVCAR-8 21.1 µM | PC-3 > 100 µM | RXF 393 22.7 µM | SK-MEL-2 > 100 µM | SK-MEL-5 > 100 µM | SNB-75 21.6 µM | U-251 61.5 µM | UACC-257 > 100 µM

CCCCCCCCCCCCCCCCP(=O)(O)OCC(N)C(=O)O (stereo not given)
inactive: A498 23.6 µM | EKVX > 100 µM | HCT-116 19.6 µM | HT-29 55.3 µM | Hs-578T 54 µM | KM12 20.3 µM | M14 50.2 µM | MDA-N 33.2 µM | MOLT-4 17.3 µM | NCI-H226 25.5 µM | NCI-H460 22.8 µM | NCI-H522 12.1 µM | OVCAR-8 > 100 µM | PC-3 14.9 µM | RXF 393 33.7 µM | SK-MEL-2 26.4 µM | SK-MEL-5 33 µM | SNB-75 26.9 µM | U-251 29.8 µM | UACC-257 > 100 µM

O=C(/C=C/C=C/c1ccccc1)c1ccccc1
inactive: A498 15.1 µM | EKVX 15.3 µM | HCT-116 17.6 µM | HT-29 16.2 µM | Hs-578T 20 µM | KM12 14.3 µM | M14 18 µM | MDA-N 16.2 µM | MOLT-4 14.6 µM | NCI-H226 16.7 µM | NCI-H460 21.3 µM | NCI-H522 4.66 µM | OVCAR-8 13.4 µM | PC-3 19.1 µM | RXF 393 17.6 µM | SK-MEL-2 20.8 µM | SK-MEL-5 16.3 µM | SNB-75 17.8 µM | U-251 14 µM | UACC-257 16.9 µM

CCOC(=O)CCC(NC(=O)c1ccc(OCc2nc3cc(C(F)(F)F)ccc3nc2-c2ccccc2)cc1)C(=O)OCC (stereo not given)
inactive: A498 > 100 µM | EKVX > 100 µM | HCT-116 52.2 µM | HT-29 > 100 µM | Hs-578T 35.8 µM | KM12 29 µM | M14 81.7 µM | MDA-N 55.5 µM | MOLT-4 40 µM | NCI-H226 13 µM | NCI-H460 52.1 µM | NCI-H522 > 100 µM | OVCAR-8 > 100 µM | PC-3 42.7 µM | RXF 393 85.7 µM | SK-MEL-2 22 µM | SK-MEL-5 31.6 µM | SNB-75 4.07 µM | U-251 > 100 µM | UACC-257 67.3 µM

CC1(C)OCC(C2OC(C)(C)OC2[C@H]2O[C@@]3(O)[C@H]4[C@H](C=CC[C@@H]42)[C@@H](OCc2ccccc2)[C@H](OCc2ccccc2)[C@H]3OCc2ccccc2)O1 (stereo not given in full)
inactive: A498 > 100 µM | EKVX 33.7 µM | HCT-116 16.1 µM | HT-29 17.9 µM | Hs-578T > 100 µM | KM12 47.4 µM | M14 59.3 µM | MDA-N 17.9 µM | MOLT-4 12.5 µM | NCI-H226 59.3 µM | NCI-H460 17.9 µM | NCI-H522 37.1 µM | OVCAR-8 22.7 µM | PC-3 31 µM | RXF 393 16.5 µM | SK-MEL-2 20.7 µM | SK-MEL-5 43.2 µM | SNB-75 27.9 µM | U-251 53.6 µM | UACC-257 18.8 µM

O=C(NCCCCCCNC(=O)n1cc(F)c(=O)[nH]c1=O)NCCCOCCOCCOCCOCCOCCOCCOCCOCCOCCOCCOCCOCCOCCOCCOCCOCCOCCOCCOCCOCCOCCCNC(=O)C(O)C(O)C(OC1OC(CO)C(O)C(O)C1O)C(O)CO (stereo not given)
inactive: A498 18.6 µM | EKVX > 88.9 µM | HCT-116 9.16 µM | HT-29 11 µM | Hs-578T 69.2 µM | KM12 19.6 µM | M14 67.5 µM | MDA-N 10 µM | MOLT-4 37 µM | NCI-H226 > 77.3 µM | NCI-H460 3.58 µM | NCI-H522 87.9 µM | OVCAR-8 43.4 µM | PC-3 55.2 µM | RXF 393 80.9 µM | SK-MEL-2 > 100 µM | SK-MEL-5 20.5 µM | SNB-75 16.4 µM | U-251 > 89.7 µM | UACC-257 59.4 µM

CNNC1=NS(=O)(=O)c2cc(C#N)c(Cl)cc2S1
inactive: A498 > 10 µM | EKVX > 10 µM | HCT-116 > 10 µM | HT-29 > 10 µM | Hs-578T > 10 µM | KM12 > 10 µM | M14 > 10 µM | MDA-N > 10 µM | MOLT-4 > 10 µM | NCI-H226 > 10 µM | NCI-H460 > 10 µM | NCI-H522 > 10 µM | OVCAR-8 > 10 µM | PC-3 > 10 µM | RXF 393 > 10 µM | SK-MEL-2 > 10 µM | SK-MEL-5 > 10 µM | SNB-75 > 10 µM | U-251 > 10 µM | UACC-257 > 10 µM

CC1CN(CCO)CC(C)O1 (stereo not given)
inactive: A498 > 100 µM | EKVX > 100 µM | HCT-116 > 100 µM | HT-29 > 100 µM | Hs-578T > 100 µM | KM12 > 100 µM | M14 > 100 µM | MDA-N > 100 µM | MOLT-4 > 100 µM | NCI-H226 > 100 µM | NCI-H460 > 100 µM | NCI-H522 > 100 µM | OVCAR-8 > 100 µM | PC-3 > 100 µM | RXF 393 > 100 µM | SK-MEL-2 > 100 µM | SK-MEL-5 > 100 µM | SNB-75 > 100 µM | U-251 > 100 µM | UACC-257 > 100 µM

C/C(=C1/N=C(c2ccccc2)OC1=O)c1cccs1
inactive: A498 > 100 µM | EKVX > 100 µM | HCT-116 > 100 µM | HT-29 > 100 µM | Hs-578T 73.5 µM | KM12 > 100 µM | M14 > 100 µM | MDA-N > 100 µM | MOLT-4 > 100 µM | NCI-H226 > 100 µM | NCI-H460 > 100 µM | NCI-H522 59.8 µM | OVCAR-8 68.9 µM | PC-3 > 100 µM | RXF 393 > 100 µM | SK-MEL-2 > 100 µM | SK-MEL-5 > 100 µM | SNB-75 76.4 µM | U-251 > 100 µM | UACC-257 > 100 µM
